# Assay results from patent US20240002374A1, “5-MEMBERED HETEROARYLAMINOSULFONAMIDES FOR TREATING CONDITIONS MEDIATED BY DEFICIENT CFTR ACTIVITY” (Genzyme Corporation, priority 2019, published 2024).
# Target: T1, CFTR (primary human bronchial epithelial cells from a ΔF508 homozygous CF donor, CF-HBE cells) (Homo sapiens, UniProt P13569, DEL508-508)
# T1 construct: Primary human bronchial epithelial cells from a ΔF508 homozygous CF donor; host or cells: primary human bronchial epithelial cells (CF-HBE) from a ΔF508 homozygous CF donor
# T1 sequence (P13569 with tags, fused parts or gaps DEL508-508): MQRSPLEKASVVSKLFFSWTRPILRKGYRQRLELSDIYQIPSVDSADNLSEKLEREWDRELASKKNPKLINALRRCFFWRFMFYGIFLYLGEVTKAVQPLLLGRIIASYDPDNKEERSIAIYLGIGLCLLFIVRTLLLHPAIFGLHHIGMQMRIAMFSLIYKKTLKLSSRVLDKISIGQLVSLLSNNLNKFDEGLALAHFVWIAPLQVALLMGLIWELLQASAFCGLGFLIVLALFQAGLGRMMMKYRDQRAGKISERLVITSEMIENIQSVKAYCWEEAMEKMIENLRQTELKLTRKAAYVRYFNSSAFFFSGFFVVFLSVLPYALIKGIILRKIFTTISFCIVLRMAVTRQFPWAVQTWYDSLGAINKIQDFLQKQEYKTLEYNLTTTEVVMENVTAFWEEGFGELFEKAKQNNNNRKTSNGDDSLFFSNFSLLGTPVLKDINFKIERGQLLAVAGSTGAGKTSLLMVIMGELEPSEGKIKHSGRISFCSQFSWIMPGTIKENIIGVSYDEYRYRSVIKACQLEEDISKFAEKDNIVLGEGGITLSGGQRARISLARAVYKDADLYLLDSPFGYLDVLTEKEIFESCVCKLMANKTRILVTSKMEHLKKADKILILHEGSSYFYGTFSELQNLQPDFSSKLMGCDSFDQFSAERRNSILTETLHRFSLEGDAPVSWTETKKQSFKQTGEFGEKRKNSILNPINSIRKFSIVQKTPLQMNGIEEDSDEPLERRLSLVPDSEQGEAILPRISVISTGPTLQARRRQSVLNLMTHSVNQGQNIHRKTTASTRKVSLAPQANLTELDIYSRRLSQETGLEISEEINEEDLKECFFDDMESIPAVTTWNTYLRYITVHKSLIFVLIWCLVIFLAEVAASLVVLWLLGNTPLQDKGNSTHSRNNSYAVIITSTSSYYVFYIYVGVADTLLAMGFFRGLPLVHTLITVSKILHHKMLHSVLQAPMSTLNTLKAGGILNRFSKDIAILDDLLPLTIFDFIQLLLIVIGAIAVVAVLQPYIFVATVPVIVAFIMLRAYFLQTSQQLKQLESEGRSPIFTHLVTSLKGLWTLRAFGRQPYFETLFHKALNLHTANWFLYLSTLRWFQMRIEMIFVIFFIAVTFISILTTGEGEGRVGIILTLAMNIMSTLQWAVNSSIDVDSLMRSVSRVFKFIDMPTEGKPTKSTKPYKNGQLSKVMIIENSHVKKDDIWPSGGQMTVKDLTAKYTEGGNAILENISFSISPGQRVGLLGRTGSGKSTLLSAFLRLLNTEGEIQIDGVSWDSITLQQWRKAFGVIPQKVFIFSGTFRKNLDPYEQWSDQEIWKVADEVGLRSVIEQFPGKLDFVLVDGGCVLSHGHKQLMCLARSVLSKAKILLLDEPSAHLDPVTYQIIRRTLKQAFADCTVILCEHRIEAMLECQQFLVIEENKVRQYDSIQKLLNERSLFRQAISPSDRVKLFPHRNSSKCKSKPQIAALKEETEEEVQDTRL
# Test: TECC24 recording of CFTR-mediated transepithelial chloride transport (TECC24 AUC fold over DMSO @ 3 μM)
# Type: cell-based
# Conditions: 3 uM test agent; CF-HBE cells (ΔF508 homozygous) incubated 48 h; ratio of test agent AUC of forskolin-stimulated IEQ to vehicle (DMSO) AUC
# Experimental: Example 510: TECC24 AUC Fold Over DMSO @ 3 μM
# The effects of a test agent on CFTR-mediated transepithelial chloride transport was measured using TECC24 recording analysis. Test agents were solubilized in DMSO. Solubilized test agents were mixed with incubation medium containing DMEM/F12, Ultroser G (2%; Crescent Chemical, catalog #67042), Hyclone Fetal Clone H (2%; GE Healthcare, catalog #SH30066.02), bovine brain extract (0.25%; Lonza, catalog #CC-4098), insulin (2.5 μg/mL), IL-13 (10 ng/mL), hydrocortisone (20 nM), transferrin (2.5 μg/mL), triiodothyronine (500 nM), ethanolamine (250 nM), epinephrine (1.5 μM), phosphoethanolamine (250 nM), and retinoic acid (10 nM). Primary human bronchial epithelial cells from a ΔF508 homozygous CF donor (CF-HBE cells; from University of North Carolina Cystic Fibrosis Tissue Procurement Center), grown on Transwell HTS 24-well cell culture inserts (Costar, catalog #3378), were exposed to test agents or controls dissolved in incubation medium. The CF-HBE cells were cultured at 36.5° C. for 48 h before TECC24 recordings were performed in the presence or absence of test agent, a positive control or vehicle (DMSO).
# Following incubation, the transwell cell culture inserts containing the test agent or control-treated CF-HBE cells were loaded onto a TECC24 apparatus (TECC v7 or MTECC v2; EP Design) to record the transepithelial voltage (VT) and resistance (TEER) using 4 AgCl electrodes per well configured in current-clamp mode. The apical and basolateral bath solutions both contained (in mM) 140 NaCl, 5 KCl, 2 CaCl2), 1 MgCl2, 10 Hepes, and 10 glucose (adjusted to pH 7.4 with NaOH) […]. To inhibit basal Na+ absorption, the ENaC inhibitor benzamil (10 μM) was added to the bath. Then, the adenylate cyclase activator, forskolin (10 μM), was added to the bath to activate CFTR. The forskolin-stimulated Cl− transport was halted by addition of bumetanide (20 μM), an inhibitor of the basolateral chloride co-transporter NKCC1, to the bath to confirm that the detected signal was chloride dependent. VT and TEER recordings were digitally acquired at routine intervals using TECC or MTECC software (EP Design). VT and TEER were transformed into equivalent transepithelial Cl− current (IEQ), and the Area Under the Curve (AUC) of the IEQ time course between forskolin and bumetanide addition is generated using Excel (Microsoft). Efficacy is expressed as the ratio of the test agent AUC divided by vehicle AUC. EC50s based on AUC are generated using the non-linear regression log(agonist) vs. response function in Prism software (GraphPad) with Hill Slope fixed=1.
# If a test agent increased the AUC of the forskolin-stimulated IEQ relative to vehicle in CF-HBE cells, and this increase was inhibited by bumetanide, then the test agent was considered a CFTR corrector.
row,SMILES,TECC AUC vs. DMSO @ 3 uM
1,"CC(C)c1ccccc1-c1nc(NS(=O)(=O)c2cccc(N)c2F)sc1-c1cccc([C@H]2CC[C@@H](OC(F)(F)F)C2)c1 [Example 48A1, 3-Amino-2-fluoro-N-(4-(2-isopropylphenyl)-5-(3-((1S,3R)-3-(trifluoromethoxy)cyclopentyl)phenyl)thiazol-2-yl)benzenesulfonamide]",A (“A” refers to AUC > 5)
2,"CC(C)c1ccccc1-c1nc(NS(=O)(=O)c2cccc(NC3CC(C)(O)C3)c2)sc1-c1ccc(F)c(OCC(F)(F)C(C)(C)C)c1 (centres unmarked) [Example 24, N-(5-(3-(2,2-Difluoro-3,3-dimethylbutoxy)-4-fluorophenyl)-4-(2-isopropylphenyl)thiazol-2-yl)-3-((3-hydroxy-3-methylcyclobutyl)amino)benzenesulfonamide]",A (“A” refers to AUC > 5)
3,"CNc1cccc(S(=O)(=O)Nc2nc(-c3ccccc3C(C)C)c(-c3cccc(OCCC(C)(C)C)c3)s2)c1 [Example 21, N-(5-(3-(3,3-Dimethylbutoxy)phenyl)-4-(2-isopropylphenyl)thiazol-2-yl)-3-(methylamino)benzenesulfonamide]",A (“A” refers to AUC > 5)
4,"O=S(=O)(Nc1nc(-c2ccccc2C(F)(F)F)c(-c2cccc([C@H]3CC[C@@H](OC(F)(F)F)C3)c2)s1)c1ccccc1 (single isomer, unassigned) [Example 44A1]",B (“B” refers to AUC 2-5)
5,"Cc1cccc(C)c1-c1nc(NS(=O)(=O)c2cccc(N)c2)sc1-c1cc(F)cc(OCCC(C)(C)C)c1 [Example 7, 3-Amino-N-(5-(3-(3,3-dimethylbutoxy)-5-fluorophenyl)-4-(2,6-dimethylphenyl)thiazol-2-yl)benzenesulfonamide]",A (“A” refers to AUC > 5)
6,"Cc1cccc(C)c1-c1nc(NS(=O)(=O)c2cn(C)nc2C)sc1N1C[C@H](OC(C)(C)C)C[C@H]1C [Example 495, N-[4-(2,6-dimethylphenyl)-5-[(2R,4R)-2-methyl-4-[(2-methylpropan-2-yl)oxy]pyrrolidin-1-yl]-1,3-thiazol-2-yl]-1,3-dimethylpyrazole-4-sulfonamide]",B (“B” refers to AUC 2-5)
7,"Nc1cccc(S(=O)(=O)Nc2nc(-c3ccc(C(F)(F)F)cc3)c(-c3cc(F)cc(O[C@H]4CCC(OC(F)(F)F)C4)c3)s2)c1 (single isomer, unassigned) [Example 43A]",B (“B” refers to AUC 2-5)
8,"Nc1cccc(S(=O)(=O)Nc2nc(-c3ccc(C(F)(F)F)cc3)c(-c3cc(F)cc(O[C@@H]4CCC(OC(F)(F)F)C4)c3)s2)c1 (single isomer, unassigned) [Example 43B]",A (“A” refers to AUC > 5)
9,"CC(C)c1ccccc1-c1nc(NS(=O)(=O)c2cccc(N)c2)sc1-c1cc(F)cc(OCCC(C)(C)C)c1 [Example 11, 3-Amino-N-(5-(3-(3,3-dimethylbutoxy)-5-fluorophenyl)-4-(2-isopropylphenyl)thiazol-2-yl)benzenesulfonamide]",A (“A” refers to AUC > 5)
10,"Cc1cccc(C)c1-c1nc(NS(=O)(=O)c2cccc(N)n2)sc1-c1cc(F)cc(OCCC(C)(C)C)c1 [Example 31, 6-Amino-N-(5-(3-(3,3-dimethylbutoxy)-5-fluorophenyl)-4-(2,6-dimethylphenyl)thiazol-2-yl)pyridine-2-sulfonamide]",A (“A” refers to AUC > 5)
11,"O=S(=O)(Nc1nc(-c2ccccc2C(F)(F)F)c(-c2cccc([C@@H]3CC[C@@H](OC(F)(F)F)C3)c2)s1)c1ccccc1 (single isomer, unassigned) [Example 44B1]",B (“B” refers to AUC 2-5)
12,"Cc1cccc(C)c1-c1nc(NS(=O)(=O)c2cccc(N(C)C)n2)sc1-c1cc(F)cc(OCCC(C)(C)C)c1 [Example 240, 6-(dimethylamino)-N-[5-[3-(3,3-dimethylbutoxy)-5-fluorophenyl]-4-(2,6-dimethylphenyl)-1,3-thiazol-2-yl]pyridine-2-sulfonamide]",A (“A” refers to AUC > 5)
13,"CC(C)c1ccccc1-c1nc(NS(=O)(=O)c2ccnc(N)c2)sc1-c1cccc(OCCC(C)(C)C)c1 [Example 362, 2-amino-N-[5-[3-(3,3-dimethylbutoxy)phenyl]-4-(2-propan-2-ylphenyl)-1,3-thiazol-2-yl]pyridine-4-sulfonamide]",A (“A” refers to AUC > 5)
14,"Cc1cccc(C)c1-c1nc(NS(=O)(=O)c2ccnc(N)c2)sc1-c1cc(F)cc(OCCC(C)(C)C)c1 [Example 32, 2-Amino-N-(5-(3-(3,3-dimethylbutoxy)-5-fluorophenyl)-4-(2,6-dimethylphenyl)thiazol-2-yl)pyridine-4-sulfonamide]",A (“A” refers to AUC > 5)
15,"Cc1cccc(C)c1-c1nc(NS(=O)(=O)c2cn(C)nc2C)sc1N1CCOC2(CCC(OC(F)(F)F)C2)C1 (centres unmarked) [Example 491, N-[4-(2,6-dimethylphenyl)-5-[3-(trifluoromethoxy)-6-oxa-9-azaspiro[4.5]decan-9-yl]-1,3-thiazol-2-yl]-1,3-dimethylpyrazole-4-sulfonamide]",B (“B” refers to AUC 2-5)
16,"CC(C)(C)CCOc1cccc(-c2sc(NS(=O)(=O)c3cccc(N)c3)nc2-c2ccccc2C(F)(F)F)c1 [Example 8, 3-Amino-N-[5-[3-(3,3-dimethylbutoxy)phenyl]-4-[2-(trifluoromethyl)phenyl]thiazol-2-yl]benzenesulfonamide]",A (“A” refers to AUC > 5)
17,"CC(C)c1ccccc1-c1nc(NS(=O)(=O)c2cccc(N)n2)sc1-c1cccc(OCCC(C)(C)C)c1 [Example 30, 6-Amino-N-(5-(3-(3,3-Dimethylbutoxy)phenyl)-4-(2-isopropylphenyl)thiazol-2-yl)pyridine-2-sulfonamide]",A (“A” refers to AUC > 5)
18,"Nc1cccc(S(=O)(=O)Nc2nc(-c3ccccc3C(F)(F)F)c(-c3cccc([C@H]4CC[C@H](OC(F)(F)F)C4)c3)s2)c1F (single isomer, unassigned) [Example 47A2]",C (“C” refers to AUC < 2)
19,"CC(C)c1ccccc1-c1nc(NS(=O)(=O)c2cccc(N)c2F)sc1-c1cccc([C@H]2CC[C@H](OC(F)(F)F)C2)c1 [Example 48A2, 3-Amino-2-fluoro-N-(4-(2-isopropylphenyl)-5-(3-((1S,3S)-3-(trifluoromethoxy)cyclopentyl)phenyl)thiazol-2-yl)benzenesulfonamide]",A (“A” refers to AUC > 5)
20,"Cc1nn(C)cc1S(=O)(=O)Nc1nc(-c2ccccc2C(C)C)c(-c2cccc([C@@H]3CC[C@H](OC(F)(F)F)C3)c2)s1 [Example 46B1, N-(4-(2-Isopropylphenyl)-5-(3-((1R,3S)-3-(trifluoromethoxy)cyclopentyl)phenyl)thiazol-2-yl)-1,3-dimethyl-1H-pyrazole-4-sulfonamide]",A (“A” refers to AUC > 5)
21,"CC(C)c1ccccc1-c1nc(NS(=O)(=O)c2cccc(N)c2)sc1-c1cccc(OCC(F)(F)C(C)(C)C)c1 [Example 490, 3-amino-N-[5-[3-(2,2-difluoro-3,3-dimethylbutoxy)phenyl]-4-(2-propan-2-ylphenyl)-1,3-thiazol-2-yl]benzenesulfonamide]",B (“B” refers to AUC 2-5)
22,"Cc1cccc(C)c1-c1nc(NS(=O)(=O)c2cccc(N)c2F)sc1-c1cc(F)cc(OCCC(C)(C)C)c1 [Example 25, 3-Amino-N-(5-(3-(3,3-dimethylbutoxy)-5-fluorophenyl)-4-(2,6-dimethylphenyl)thiazol-2-yl)-2-fluorobenzenesulfonamide]",A (“A” refers to AUC > 5)
23,"CC(C)c1ccccc1-c1nc(NS(=O)(=O)c2cccc(NC(C)C(F)(F)F)c2)sc1-n1ccc(OCC(C)(C)C(F)(F)F)n1 (centres unmarked) [Example 471, N-[4-(2-propan-2-ylphenyl)-5-[3-(3,3,3-trifluoro-2,2-dimethylpropoxy)pyrazol-1-yl]-1,3-thiazol-2-yl]-3-(1,1,1-trifluoropropan-2-ylamino)benzenesulfonamide]",B (“B” refers to AUC 2-5)
